For orientation: pIC50 means the IC50 on a negative log10 scale, so that one unit is a factor of ten.

From US20230082430A1 (C4 Therapeutics, Inc., priority 2019, published 2023) come the findings set out here.

This test concerns NCIH929.1 cells. The test can be described thus: Cell viability assay for Table 2 (CellTiter-Glo 2.0, ATP quantification, 96 hr). It is filed as cell-based. Conditions: NCIH929.1 cell viability, 96 hr, top concentration 1 μM, 14 points half log titration, read-out: IC50. From the text: Cell Viability Assay for Table 2
CellTiter-Glo® 2.0 Assay was purchased from Promega (Madison, Wis., USA). NCIH929.1 cell line was purchased from ATCC (Manassas, Va., USA). Cell culture flasks and 384-well microplates were acquired from VWR (Radnor, Pa., USA).
(Cellular ATP, detected with luciferase, serves as a proxy for viable cell number.)

pIC50: −log10 of the molar value. Where two headings read alike, the source gives them in different places.

With `CC(c1ccc(Cc2ccc3c4c(cccc24)C(=O)N3C2CCC(=O)NC2=O)cc1)N1CCN(c2ccccc2F)CC1` (single isomer, unassigned) [Compound 285, 3-[6-[[4-[1-[4-(2-fluorophenyl)piperazin-1-yl]ethyl]phenyl]methyl]-2-oxo-benzo[cd]indol-1-yl]piperidine-2,6-dione], the negative logarithm of the IC50 (pIC50) is > 9.00.
Turning to `O=C1CCC(N2C(=O)c3cccc4c(Cc5cnn(C6CCN(C(=O)C78COC(C7)C8)CC6)c5)ccc2c34)C(=O)N1` (centres unmarked) [Compound 37, 3-(6-((1-(1-(2-oxabicyclo[2.1.1]hexane-4-carbonyl)piperidin-4-yl)-1H-pyrazol-4-yl)methyl)-2-oxobenzo[cd]indol-1(2H)-yl)piperidine-2,6-dione], the negative-log IC50 (pIC50) (96 h) is > 9.00.
For `N#CC1(C(=O)N2CCC(n3cc(Cc4ccc5c6c(cccc46)C(=O)N5C4CCC(=O)NC4=O)cn3)CC2)CC1` (centres unmarked) [Compound 38, 1-(4-(4-((1-(2,6-dioxopiperidin-3-yl)-2-oxo-l,2-dihydrobenzo[cd]indol-6-yl)methyl)-1H-pyrazol-1-yl)piperidine-1-carbonyl)cyclopropane-1-carbonitrile], the negative-log IC50 (pIC50) (96 h) is > 9.00.
The same measure, in the same setting: then `N#CC1(C(=O)N2CCC(n3cc(Cc4ccc5c6c(cccc46)C(=O)N5C4CCC(=O)NC4=O)cn3)CC2)CCC1` (centres unmarked) [Compound 39, 1-(4-(4-((1-(2,6-dioxopiperidin-3-yl)-2-oxo-1,2-dihydrobenzo[cd]indol-6-yl)methyl)-1H-pyrazol-1-yl)piperidine-1-carbonyl)cyclobutane-1-carbonitrile], with > 9.00.
Turning to `CC(C)(C#N)C(=O)N1CCC(n2cc(Cc3ccc4c5c(cccc35)C(=O)N4C3CCC(=O)NC3=O)cn2)CC1` (centres unmarked) [Compound 40, 3-(4-(4-((1-(2,6-dioxopiperidin-3-yl)-2-oxo-1,2-dihydrobenzo[cd]indol-6-yl)methyl)-1H-pyrazol-1-yl)piperidin-1-yl)-2,2-dimethyl-3-oxopropanenitrile], the pIC50 (96 h) is > 9.00.
Still for that read-out and setting: then `CC1(C(=O)N2CCC(n3cc(Cc4ccc5c6c(cccc46)C(=O)N5C4CCC(=O)NC4=O)cn3)CC2)CCOCC1` (centres unmarked) [Compound 41, 3-(6-((1-(1-(4-methyltetrahydro-2H-pyran-4-carbonyl)piperidin-4-yl)-1H-pyrazol-4-yl)methyl)-2-oxobenzo[cd]indol-1(2H)-yl)piperidine-2,6-dione], with > 9.00; and `O=C1CCC(N2C(=O)c3cccc4c(Cc5cnn(C6CCN(C(=O)c7ccncc7)CC6)c5)ccc2c34)C(=O)N1` (centres unmarked) [Compound 42, 3-(6-((1-(1-isonicotinoylpiperidin-4-yl)-1H-pyrazol-4-yl)methyl)-2-oxobenzo[cd]indol-1(2H)-yl)piperidine-2,6-dione], with > 9.00; and `O=C1CCC(N2C(=O)c3cccc4c(Cc5cnn(C6CCN(C(=O)c7cccnc7)CC6)c5)ccc2c34)C(=O)N1` (centres unmarked) [Compound 43, 3-(6-((1-(1-nicotinoylpiperidin-4-yl)-1H-pyrazol-4-yl)methyl)-2-oxobenzo[cd]indol-1(2H)-yl)piperidine-2,6-dione], with > 9.00.
For the compound `CC(C)(C)C(=O)N1CCC(n2cc(Cc3ccc4c5c(cccc35)C(=O)N4C3CCC(=O)NC3=O)cn2)CC1` (centres unmarked) [Compound 44, 3-(2-oxo-6-((1-(1-pivaloylpiperidin-4-yl)-1H-pyrazol-4-yl)methyl)benzo[cd]indol-1(2H)-yl)piperidine-2,6-dione], under “96 h”, the negative-log IC50 (pIC50) is > 9.00.
Regarding `Cc1cccc(C)c1C(=O)N1CCC(n2cc(Cc3ccc4c5c(cccc35)C(=O)N4C3CCC(=O)NC3=O)cn2)CC1` (centres unmarked) [Compound 45, 3-(6-((1-(1-(2,6-dimethylbenzoyl)piperidin-4-yl)-1H-pyrazol-4-yl)methyl)-2-oxobenzo[cd]indol-1(2H)-yl)piperidine-2,6-dione], under “96 h”, the pIC50 was > 9.00.
As to `O=C1CCC(N2C(=O)c3cccc4c(Cc5cnn(C6CCN(C(=O)c7ccccn7)CC6)c5)ccc2c34)C(=O)N1` (centres unmarked) [Compound 46, 3-(2-oxo-6-((1-(1-picolinoylpiperidin-4-yl)-1H-pyrazol-4-yl)methyl)benzo[cd]indol-1(2H)-yl)piperidine-2,6-dione], the pIC50 (96 h) was > 9.00.
On to `O=C1CCC(N2C(=O)c3cccc4c(Cc5cnn(C6CCN(C(=O)c7ccccc7)CC6)c5)ccc2c34)C(=O)N1` (centres unmarked) [Compound 47, 3-(6-((1-(1-benzoylpiperidin-4-yl)-1H-pyrazol-4-yl)methyl)-2-oxobenzo[cd]indol-1(2H)-yl)piperidine-2,6-dione], for which the pIC50 (96 h) was > 9.00.
On the same count and under the same terms, then `O=C1CCC(N2C(=O)c3cccc4c(Cc5cnn(C6CCN(C(=O)C78CC(CO7)C8)CC6)c5)ccc2c34)C(=O)N1` (centres unmarked) [Compound 48, 3-(6-((1-(1-(2-oxabicyclo[2.1.1]hexane-1-carbonyl)piperidin-4-yl)-1H-pyrazol-4-yl)methyl)-2-oxobenzo[cd]indol-1(2H)-yl)piperidine-2,6-dione], with > 9.00; and `CC12CC(C(=O)N3CCC(n4cc(Cc5ccc6c7c(cccc57)C(=O)N6C5CCC(=O)NC5=O)cn4)CC3)(CCO1)C2` (centres unmarked) [Compound 49, 3-(6-((1-(1-(1-methyl-2-oxabicyclo[3.1.1]heptane-5-carbonyl)piperidin-4-yl)-1H-pyrazol-4-yl)methyl)-2-oxobenzo[cd]indol-1(2H)-yl)piperidine-2,6-dione], with > 9.00; and `O=C1CCC(N2C(=O)c3cccc4c(Cc5cnn(C6CCN(C(=O)C78CCCC(C7)C8)CC6)c5)ccc2c34)C(=O)N1` (centres unmarked) [Compound 50, 3-(6-((1-(1-(bicyclo[3.1.1]heptane-1-carbonyl)piperidin-4-yl)-1H-pyrazol-4-yl)methyl)-2-oxobenzo[cd]indol-1(2H)-yl)piperidine-2,6-dione], with > 9.00.
With `O=C1CCC(N2C(=O)c3cccc4c(Cc5cnn(C6CCN(C(=O)C7(C(F)(F)F)CCC7)CC6)c5)ccc2c34)C(=O)N1` (centres unmarked) [Compound 51, 3-(2-oxo-6-((1-(1-(1-(trifluoromethyl)cyclobutane-1-carbonyl)piperidin-4-yl)-1H-pyrazol-4-yl)methyl)benzo[cd]indol-1(2H)-yl)piperidine-2,6-dione], the negative-log IC50 (pIC50) (96 h) is > 9.00.
Regarding `O=C1CCC(N2C(=O)c3cccc4c(Cc5cnn(C6CCN(C(=O)C7(C(F)(F)F)CC7)CC6)c5)ccc2c34)C(=O)N1` (centres unmarked) [Compound 52, 3-(2-oxo-6-((1-(1-(1-(trifluoromethyl)cyclopropane-1-carbonyl)piperidin-4-yl)-1H-pyrazol-4-yl)methyl)benzo[cd]indol-1(2H)-yl)piperidine-2,6-dione], the pIC50 (96 h) was > 9.00.
Same read-out and setting: then `CC1(C(=O)N2CCC(n3cc(Cc4ccc5c6c(cccc46)C(=O)N5C4CCC(=O)NC4=O)cn3)CC2)CCC1` (centres unmarked) [Compound 53, 3-(6-((1-(1-(1-methylcyclobutane-1-carbonyl)piperidin-4-yl)-1H-pyrazol-4-yl)methyl)-2-oxobenzo[cd]indol-1(2H)-yl)piperidine-2,6-dione], with > 9.00; and `O=C1CCC(N2C(=O)c3cccc4c(Cc5cnn(C6CCN(C(=O)C78C9C%10C%11C9C7C%11C%108)CC6)c5)ccc2c34)C(=O)N1` (centres unmarked) [Compound 54, 3-(6-((1-(1-(cubane-1-carbonyl)piperidin-4-yl)-1H-pyrazol-4-yl)methyl)-2-oxobenzo[cd]indol-1(2H)-yl)piperidine-2,6-dione], with > 9.00; and `CC1(CN2CCC(n3cc(Cc4ccc5c6c(cccc46)C(=O)N5C4CCC(=O)NC4=O)cn3)CC2)CCC1` (centres unmarked) [Compound 55, 3-(6-((1-(1-((1-methylcyclobutyl)methyl)piperidin-4-yl)-1H-pyrazol-4-yl)methyl)-2-oxobenzo[cd]indol-1(2H)-yl)piperidine-2,6-dione], with > 9.00.
As for `COC1(CN2CCC(n3cc(Cc4ccc5c6c(cccc46)C(=O)N5C4CCC(=O)NC4=O)cn3)CC2)CCC1` (centres unmarked) [Compound 56, 3-(6-((1-(1-((1-methoxycyclobutyl)methyl)piperidin-4-yl)-1H-pyrazol-4-yl)methyl)-2-oxobenzo[cd]indol-1(2H)-yl)piperidine-2,6-dione], the pIC50 (96 h) is > 9.00.
Turning to `O=C1CCC(N2C(=O)c3cccc4c(Cc5cnn(C6CCN(CC7(C(F)(F)F)CCC7)CC6)c5)ccc2c34)C(=O)N1` (centres unmarked) [Compound 57, 3-(2-oxo-6-((1-(1-((1-(trifluoromethyl)cyclobutyl)methyl)piperidin-4-yl)-1H-pyrazol-4-yl)methyl)benzo[cd]indol-1(2H)-yl)piperidine-2,6-dione], for the setting “96 h”, the pIC50 was > 9.00.
With `COC(C)(C)CN1CCC(n2cc(Cc3ccc4c5c(cccc35)C(=O)N4C3CCC(=O)NC3=O)cn2)CC1` (centres unmarked) [Compound 58, 3-(6-((1-(1-(2-methoxy-2-methylpropyl)piperidin-4-yl)-1H-pyrazol-4-yl)methyl)-2-oxobenzo[cd]indol-1(2H)-yl)piperidine-2,6-dione], the negative logarithm of the IC50 (pIC50) (96 h) is > 9.00.
With `O=C1CCC(N2C(=O)c3cccc4c(Cc5cnn(C6CCN(CC7(F)CCC7)CC6)c5)ccc2c34)C(=O)N1` (centres unmarked) [Compound 59, 3-(6-((1-(1-((1-fluorocyclobutyl)methyl)piperidin-4-yl)-1H-pyrazol-4-yl)methyl)-2-oxobenzo[cd]indol-1(2H)-yl)piperidine-2,6-dione], for the setting “96 h”, the pIC50 is > 9.00.
For `N#CC1(CN2CCC(n3cc(Cc4ccc5c6c(cccc46)C(=O)N5C4CCC(=O)NC4=O)cn3)CC2)CCC1` (centres unmarked) [Compound 60, 1-((4-(4-((1-(2,6-dioxopiperidin-3-yl)-2-oxo-1,2-dihydrobenzo[cd]indol-6-yl)methyl)-1H-pyrazol-1-yl)piperidin-1-yl)methyl)cyclobutane-1-carbonitrile], the negative-log IC50 (pIC50) (96 h) was > 9.00.
Still for that read-out and setting: then `CC(C)(C#N)CN1CCC(n2cc(Cc3ccc4c5c(cccc35)C(=O)N4C3CCC(=O)NC3=O)cn2)CC1` (centres unmarked) [Compound 61, 3-(4-(4-((1-(2,6-dioxopiperidin-3-yl)-2-oxo-1,2-dihydrobenzo[cd]indol-6-yl)methyl)-1H-pyrazol-1-yl)piperidin-1-yl)-2,2-dimethylpropanenitrile], with > 9.00.
